# Measured values taken from ChEMBL document CHEMBL5338785, “Development of Aromatic-Linked Diamino Acid Antimicrobial Peptide Mimics with Low Hemolytic Toxicity and Excellent Activity against Methicillin-Resistant Staphylococcus aureus (MRSA)” (J Med Chem, 2023).
# Active and inactive are the calls of the source. The calls are words filed in the database; no cut-off is given here.
# How the values were obtained:
# [1] = Cytotoxicity against HUVEC cells assessed as reduction in cell viability incubated for 72 hrs by CCK8 assay; type: toxicity, cell-based; settings: human
# Staphylococcus aureus [2] = assay: Antibacterial activity against methicillin-resistant Staphylococcus aureus assessed as resistance development by measuring increase in MIC measured after 14 days by resistance development assay (reference value: 1 ug/ml); type: functional; settings: 336 h, time 14 day
# Staphylococcus aureus [3] = assay: Antibacterial activity against methicillin-resistant Staphylococcus aureus assessed as bacterial growth inhibition incubated for 18 hrs by CLSI protocol based Mueller-Hinton broth assay; type: functional
# Enterococcus faecalis = assay: Antibacterial activity against Enterococcus faecalis assessed as bacterial growth inhibition incubated for 18 hrs by CLSI protocol based Mueller-Hinton broth assay; type: functional
# Escherichia coli = assay: Antibacterial activity against Escherichia coli assessed as bacterial growth inhibition incubated for 18 hrs by CLSI protocol based Mueller-Hinton broth assay; type: functional
# [4] = system: Stenotrophomonas maltophilia; assay: Antibacterial activity against Stenotrophomonas maltophilia assessed as bacterial growth inhibition incubated for 18 hrs by CLSI protocol based Mueller-Hinton broth assay; type: functional
# Erythrocyte = assay: (§1) Hemolytic activity in sheep RBC assessed as hemolysis incubated for 1 hr by microplate reader method; type: toxicity, cell-based, Ovis aries; settings: erythrocyte, 1 h
# [5] = Selectivity index, ratio of HC50 for hemolytic activity in sheep RBC to MIC for antibacterial activity against methicillin-resistant Staphylococcus aureus assessed as bacterial growth inhibition; type: toxicity; settings: erythrocytes
# [6] = as §1; type: toxicity, cell-based, Ovis aries, Erythrocyte; settings: sheep red blood cells
# Staphylococcus aureus [7] = assay: Bactericidal activity against methicillin-resistant Staphylococcus aureus at 3 ug/ml measured after 12 hrs by time-killing kinetics assay; type: functional, organism-based; settings: dose 3.0 µg/ml
# Staphylococcus aureus [8] = assay: In vivo antibacterial activity against methicillin-resistant Staphylococcus aureus infected in SPF Kunming mouse assessed as reduction in amount of bacteria measure per abscess at 5 mg/kg ,ip administered every 12 hrs for 3 consecutive days; type: functional; settings: time 3 day
# Staphylococcus aureus [9] = assay: In vivo antibacterial activity against methicillin-resistant Staphylococcus aureus infected in SPF Kunming mouse assessed as reduction in neutrophils in skin tissue at 10 mg/kg ,ip administered every 12 hrs for 3 consecutive days; type: functional, organism-based; settings: time 3.0 day
# Staphylococcus aureus [10] = assay: In vivo antibacterial activity against methicillin-resistant Staphylococcus aureus infected in SPF Kunming mouse assessed as reduction in inflammation in skin tissue at 10 mg/kg ,ip administered every 12 hrs for 3 consecutive days; type: functional, organism-based; settings: time 3.0 day
# Staphylococcus aureus [11] = assay: Bactericidal activity against methicillin-resistant Staphylococcus aureus assessed as reduction in turbidity at 3 ug/ml measured after 6 hrs; type: functional, organism-based; settings: dose 3.0 µg/ml
smiles,measurement,setting,value
CC[C@H](C)[C@H](NC(=O)CN)C(=O)NCC(=O)N[C@@H](C)C(=O)N[C@H](C(=O)N[C@@H](CC(C)C)C(=O)N[C@@H](CCCCN)C(=O)N[C@H](C(=O)N[C@@H](CC(C)C)C(=O)N[C@H](C(=O)N[C@H](C(=O)NCC(=O)N[C@@H](CC(C)C)C(=O)N1CCC[C@H]1C(=O)N[C@@H](C)C(=O)N[C@@H](CC(C)C)C(=O)N[C@H](C(=O)N[C@@H](CO)C(=O)N[C@@H](Cc1c[nH]c2ccccc12)C(=O)N[C@H](C(=O)N[C@@H](CCCCN)C(=O)N[C@@H](CCCNC(=N)N)C(=O)N[C@@H](CCCCN)C(=O)N[C@@H](CCCNC(=N)N)C(=O)N[C@@H](CCC(N)=O)C(=O)N[C@@H](CCC(N)=O)C(N)=O)[C@@H](C)CC)[C@@H](C)CC)[C@@H](C)O)[C@@H](C)O)C(C)C)C(C)C [MELITTIN],CC50 at 72 h,[1],5.8 µg/mL
CCn1cc(C(=O)O)c(=O)c2cc(F)c(N3CCNCC3)cc21 [NORFLOXACIN],MIC,Staphylococcus aureus [2],128 µg/mL
CCCCCCCN(CCCOc1ccc2ccccc2c1-c1c(OCCCN(CCCCCCC)C(=O)[C@@H](N)CCCCN)ccc2ccccc12)C(=O)[C@@H](N)CCCCN.Cl.Cl.Cl.Cl (stereo in doubt; 8n),MIC,"Staphylococcus aureus [3]; Staphylococcus aureus, read-out: MIC",2 µg/mL
same,MIC,"Enterococcus faecalis; Enterococcus faecalis, 18 h, read-out: MIC",2 µg/mL
same,MIC,"Escherichia coli; Escherichia coli, 18 h, read-out: MIC",2 µg/mL
same,MIC,"[4]; Stenotrophomonas maltophilia, read-out: MIC",2 µg/mL
same,HC50,Erythrocyte,31 µg/mL
same,Ratio,[5],15.5
CCCCCCN(CCCOc1ccc2ccccc2c1-c1c(OCCCN(CCCCCC)C(=O)[C@@H](N)CCCCN)ccc2ccccc12)C(=O)[C@@H](N)CCCCN.Cl.Cl.Cl.Cl (stereo in doubt; 8p),MIC,Staphylococcus aureus [3],1 µg/mL
same,MIC,Enterococcus faecalis,1 µg/mL
same,MIC,Escherichia coli,2 µg/mL
same,MIC,[4],1 µg/mL
same,HC50,Erythrocyte,117 µg/mL
same,Ratio,[5],117
CCCCCCCN(CCCOc1ccc2ccccc2c1-c1c(OCCCN(CCCCCCC)C(=O)[C@@H](N)CCCCN)ccc2ccccc12)C(=O)[C@@H](N)CCCCN.Cl.Cl.Cl.Cl (stereo in doubt; 8q),MIC,Staphylococcus aureus [3],2 µg/mL
same,MIC,Enterococcus faecalis; 18 h,1 µg/mL
same,MIC,Escherichia coli,2 µg/mL
same,MIC,[4],2 µg/mL
same,HC50,Erythrocyte,7 µg/mL
same,Ratio,[5],3.5
CN[C@H](CC(C)C)C(=O)N[C@H]1C(=O)N[C@@H](CC(N)=O)C(=O)N[C@H]2C(=O)N[C@H]3C(=O)N[C@H](C(=O)N[C@H](C(=O)O)c4cc(O)cc(O)c4-c4cc3ccc4O)[C@H](O)c3ccc(c(Cl)c3)Oc3cc2cc(c3O[C@@H]2O[C@H](CO)[C@@H](O)[C@H](O)[C@H]2O[C@H]2C[C@](C)(N)[C@H](O)[C@H](C)O2)Oc2ccc(cc2Cl)[C@H]1O [VANCOMYCIN],HC50 at 1 h,[6],> 1000 µg/mL
same,Activity,Staphylococcus aureus [7],Active
same,Activity,Staphylococcus aureus [8],14454.4 CFU
same,Activity,Staphylococcus aureus [9],Active
same,Activity,Staphylococcus aureus [10],Active
same,Activity,Staphylococcus aureus [11],Active
CCCCCCCCN(CCCOc1ccc2ccccc2c1-c1c(OCCCN(CCCCCCCC)C(=O)[C@@H](N)CCCCN)ccc2ccccc12)C(=O)[C@@H](N)CCCCN.Cl.Cl.Cl.Cl (stereo in doubt; 8r),MIC,Staphylococcus aureus [3],4 µg/mL
same,MIC,Enterococcus faecalis,2 µg/mL
same,MIC,Escherichia coli; 18 h,4 µg/mL
same,MIC,[4],4 µg/mL
same,HC50,Erythrocyte,136 µg/mL
same,Ratio,[5],34
C=C[C@]1(C)C[C@@H](OC(=O)CS[C@@H]2C[C@H]3CC[C@@H](C2)N3C)[C@]2(C)[C@H](C)CC[C@]3(CCC(=O)[C@H]32)[C@@H](C)[C@@H]1O [RETAPAMULIN],CC50 at 72 h,[1],25.5 µg/mL
